The values below come from patent US5238930A, “Alkenoic acid compounds for mechanism-based inactivation of dehydropeptidase activity” (Board of Governors of Wayne State University, priority 1992, dated 1993).

What all share (test): Kinetic analysis of interaction (turnover and inactivation) with porcine renal dipeptidase (dehydropeptidase I)
Holding throughout (type): biochemical

The target of data set [1] is T1, porcine dehydropeptidase I (Sus scrofa, UniProt P22412).
T1 construct: Renal dipeptidase from porcine kidney was purified by a slight modification of the literature report; from tissue; host or cells: porcine kidney
T1 sequence (P22412 17-409): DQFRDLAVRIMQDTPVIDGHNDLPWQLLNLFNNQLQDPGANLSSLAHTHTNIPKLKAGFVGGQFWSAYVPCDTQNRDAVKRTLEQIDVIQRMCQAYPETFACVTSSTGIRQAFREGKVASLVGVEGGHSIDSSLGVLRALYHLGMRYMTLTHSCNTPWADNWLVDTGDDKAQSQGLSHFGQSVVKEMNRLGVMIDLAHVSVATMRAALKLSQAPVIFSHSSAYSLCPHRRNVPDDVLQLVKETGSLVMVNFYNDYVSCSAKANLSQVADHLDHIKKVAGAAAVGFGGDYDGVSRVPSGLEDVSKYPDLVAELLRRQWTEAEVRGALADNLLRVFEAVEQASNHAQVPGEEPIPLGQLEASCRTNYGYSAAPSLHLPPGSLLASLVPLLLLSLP
Particulars: for kinact: read-out: kinact (first-order rate constant for inactivation) (converted); for Ki: renal dipeptidase assay with glycinyldehydrophenylalanine as substrate, read-out: Ki (reversible inhibitor constant for the formation of the EI complex). The source says: (§1) Km is the Michaelis […] for the turnover, and Ki is the reversible inhibitor constant for the formation of the EI complex. The parameters Kcat and Kinact are first-order rate constant for enzymic turnover and inactivation, respectively. The partition ratio is defined as kcat divided by kinact (i.e., kcat/ kinact).
(§2) Renal dipeptidase from porcine kidney was purified by a slight modification of the literature report (Biochem. J. 257, 361 (1989)). The spectrophotometric assay of renal dipeptidase is carried out according to the method of Campbell et al. (Methods Enzymol. 19, 722 (1970)), using glycinyldehydrophenylalanine as substrate. The substrate was synthesized according to the literature report (Synthesis Commun., 234 (1982)).
(§3) The relevant kinetic parameters for interactions of I and III with porcine dehydropeptidase I are given below.

Substrate in data set [2]: C=C(CC(=O)CC#N)C(=O)O
Particulars: other: turnover of compound by porcine dehydropeptidase I.
Description: as §1, §2, §3

Substrate in data set [3]: C=C(NC(=O)CC#N)C(=O)O
The settings on record: other: turnover of compound by porcine dehydropeptidase I.
Description: as §1, §2, §3

Entries after “also recorded” stand apart in the source; their conditions may differ.

In the case of `C=C(CC(=O)CC#N)C(=O)O` [I, 2-Methnylene-5-Cyano-4-Oxopentanoic Acid], in data set [1] (conclusion from the kinetic table), the “inactivation of dehydropeptidase, overall result in words” value is “very effective inactivators; also recorded: somewhat better than the ketonic compound (I)”. Further, the “kcat/kinact (partition ratio)” value in data set [1] (porcine dehydropeptidase I, kcat divided by kinact) turned out to be 217 ± 37. Besides, in data set [1] (porcine dehydropeptidase I), the kinact (as a rule, the maximal first-order rate at which the target is inactivated) was 0.00252 s⁻¹ and the Ki was found to be 38 ± 1 µM.
For the molecule `C=C(NC(=O)CC#N)C(=O)O` [III, 2-Cyanoacetamidoacrylic Acid], in data set [1] (porcine dehydropeptidase I), the kinact was 0.00462 s⁻¹ and the Ki was found to be 18 ± 6 µM.

B1: porcine dehydropeptidase I (Sus scrofa) (protein)
chain: T1 sequence (P22412 17-409)
notes: Renal dipeptidase from porcine kidney was purified by a slight modification of the literature report; from tissue; host or cells: porcine kidney
For the molecule B1, the Michaelis constant (Km) (as a rule, the substrate concentration at which the rate is half of its maximum) in data set [2] amounted to 10.3 mM; in data set [3], 0.416 mM.
